Source: PMC3348524, “Diverse Effects of Glutathione and UPF Peptides on Antioxidant Defense System in Human Erythroleukemia Cells K562” (International Journal of Peptides, 2012)
Like-named read-outs stand apart in the source and are kept apart here. Numbered stars: 1 amine (or outer) side, 2 acyl side, 3 side chain; on linkers, the order of the positions; unused ones are H or OH. Bridge positions count the residues as written; N and C are the ends. Square brackets hold non-standard residues; d marks the D form. Peptide text beside a SMILES is read from it. I, II: the chains in the order shown. γGlu = O=C(O)[C@H](CCC(=O)[*:2])N[*:1]

What was measured:
[1] = pKa of thiol groups, spectrophotometric titration; assay type: physicochemical; details: 50 μM peptide in phosphate buffered saline, titrated with 1 M NaOH, absorbance at 240 nm
Procedure: The ratio of thiol and thiolate concentrations were measured spectrophotometrically at 240 nm on a PerkinElmer Lambda 25 spectrometer similarly as previously for GSH and α-GSH [21]. 1 mL of 50 μM peptide solution in phosphate buffered saline (Calbiochem, USA) was titrated with 5 μL volumes of 1 M NaOH and pH and absorbance changes were determined after each addition. The results were corrected to consider the dilution of the assay mixture during titration.

[2] = previous work; cited from earlier work
Description: UPF1 and UPF17 have also shown different effects in free radical scavenging experiments. According to the classification of kinetic behavior by Sánches-Moreno et al., UPF17 is classified as fast and UPF1 as intermediate DPPH radical scavenger. […] This raised a question about pKa values for the thiol groups of UPF peptides. Previously, the change of γ-peptide bond to α-peptide bond has also been investigated f ...

K562 cells = tested on: K562 cells; parameters: method as in PMID 17577738, PMID 15489015; details: cited from earlier work
[3] = tested on: primary culture of cerebellar granule cells; parameters: method as in PMID 17577738, PMID 15489015; details: cited from earlier work
[4] = tested on: equine kidney γ-glutamyltranspeptidase; assay: Stability towards γ-glutamyltranspeptidase (HPLC-MS); details: 1 mM peptide, 0.3 mg/mL equine kidney GGT, 0.1 M Tris-HCl pH 7.4, 0.1% EDTA, 6 mM Gly-Gly acceptor, 37°C, 1 h; HPLC-MS read-out
Procedure: 6 mM Gly-Gly was added as an acceptor for γ-Glu moiety [20]. GSH was incubated with GGT under the same conditions as the control. The samples were heat-inactivated, centrifuged at 10000 g and +4°C for 5 min, and kept on ice until analyzed. Supernatants were analyzed on a Prominence HPLC (Shimadzu, Japan) and Q-Trap 3200 (Applied Biosystems, USA) mass spectrometry tandem. Luna C18 100 × 2 mm, 3 μm column from Phenomenex was used for sample separation. Solvent A was a mixture of 99.9% water and 0.1% HCOOH, and solvent B was a mixture of 99.9% acetonitrile and 0.1% HCOOH (mass spectrometry grade, Riedel-de Haėn, Germany). Samples were eluated at a flow rate of 0.1 mL/min, gradient started with 5 min at isocratic flow of solvent A, concentration of solvent B increased up to 30% in 25 min, followed by wash with 100% solvent B in 20 min. Enhanced MS scans were performed in negative mode with rate 1000 amu/s between mass range 50–1700 Da. Ionspray voltage was set to −4500 V, declustering potential to −30 V and entrance potential to −10 V.

| SMILES | pKa of thiol group [1] | pKa of thiol group [2] | concentration up to which nontoxic for K562 cells (K562 cells) | concentration up to which no toxic effect on cerebellar granule cells [3] | degradation by GGT [4] |
| --- | --- | --- | --- | --- | --- |
| N[C@@H](CCC(=O)N[C@@H](CS)C(=O)NCC(=O)O)C(=O)O [GSH, γ-L-Glu-L-Cys-Gly, reference compound] | 9.0 ± 0.3 | 9.0 ± 0.1 | – | – | – |
| COc1ccc(C[C@H](N)C(=O)N[C@@H](CCC(=O)N[C@@H](CS)C(=O)NCC(=O)O)C(=O)O)cc1 [UPF1, Tyr(Me)-γ-Glu-Cys-Gly] (H-Y(Me)[γGlu]CG-OH) | 9.3 ± 0.1 | – | ≤ 200 µM | up to 100 μM | not degraded |
| COc1ccc(C[C@H](N)C(=O)N[C@@H](CCC(=O)N[C@@H](CSSC[C@H](NC(=O)CC[C@H](NC(=O)[C@@H](N)Cc2ccc(OC)cc2)C(=O)O)C(=O)NCC(=O)O)C(=O)NCC(=O)O)C(=O)O)cc1 [dimerised UPF1] (I: H-Y(Me)[γGlu]CG-OH / II: H-Y(Me)[γGlu]CG-OH; disulfide I:3-II:3) | – | – | – | – | not detected |
| N[C@@H](CCC(=O)O)C(=O)N[C@@H](CS)C(=O)NCC(=O)O [α-GSH] (H-Glu-Cys-Gly-OH) | 9.1 ± 0.1 | 9.1 ± 0.1 | – | – | – |
| COc1ccc(C[C@H](N)C(=O)N[C@@H](CCC(=O)O)C(=O)N[C@@H](CS)C(=O)NCC(=O)O)cc1 [UPF17, Tyr(Me)-Glu-Cys-Gly] (H-Y(Me)ECG-OH) | 9.4 ± 0.2 | – | ≤ 200 µM | – | – |
